According to ChEMBL document CHEMBL4257449, “New N-(2-phenyl-4-oxo-1,3-thiazolidin-3-yl)-1,2-benzothiazole-3-carboxamides and acetamides as antimicrobial agents” (2017):
Values after ≈ are worked out from the molar mass of the structure shown.

What was measured:
[1] = test system: Enterobacter cloacae; assay: Bactericidal activity against Enterobacter cloacae incubated for 24 hrs followed by serial sub-cultivation and measured after 24 hrs by microdilution method; assay type: functional
[2] = test system: Bacillus cereus; assay: Antibacterial activity against Bacillus cereus after 24 hrs by microdilution method; assay type: functional
[3] = test system: Listeria monocytogenes; assay: Bactericidal activity against Listeria monocytogenes NCTC 7973 incubated for 24 hrs followed by serial sub-cultivation and measured after 24 hrs by microdilution method; assay type: functional
[4] = test system: Pseudomonas aeruginosa; assay: Bactericidal activity against Pseudomonas aeruginosa ATCC 27853 incubated for 24 hrs followed by serial sub-cultivation and measured after 24 hrs by microdilution method; assay type: functional
[5] = test system: Listeria monocytogenes; assay: Antibacterial activity against Listeria monocytogenes NCTC 7973 after 24 hrs by microdilution method; assay type: functional; conditions: NCTC 7973, 24 h
[6] = test system: Micrococcus flavus; assay: Antibacterial activity against Micrococcus flavus ATCC 10240 after 24 hrs by microdilution method; assay type: functional; conditions: ATCC 10240, 24 h
[7] = test system: Aspergillus niger; assay: Antifungal activity against Aspergillus niger ATCC 6275 after 72 hrs by serial dilution method; assay type: functional; conditions: ATCC 6275, 72 h
[8] = test system: Candida albicans; assay: Antifungal activity against Candida albicans after 72 hrs by serial dilution method; assay type: functional
[9] = test system: Enterobacter cloacae; assay: Antibacterial activity against Enterobacter cloacae after 24 hrs by microdilution method; assay type: functional
[10] = test system: Aspergillus niger; assay: Fungicidal activity against Aspergillus niger ATCC 6275 incubated for 72 hrs followed by serial sub-cultivation for 72 hrs and measured after 72 hrs by serial dilution method; assay type: functional
[11] = test system: Aspergillus ochraceus; assay: Fungicidal activity against Aspergillus ochraceus ATCC 12066 incubated for 72 hrs followed by serial sub-cultivation for 72 hrs and measured after 72 hrs by serial dilution method; assay type: functional
[12] = test system: Trichoderma viride; assay: Fungicidal activity against Trichoderma viride IAM 5061 incubated for 72 hrs followed by serial sub-cultivation for 72 hrs and measured after 72 hrs by serial dilution method; assay type: functional
[13] = test system: Trichoderma viride; assay: Antifungal activity against Trichoderma viride IAM 5061 after 72 hrs by serial dilution method; assay type: functional; conditions: IAM 5061, 72 h
[14] = test system: Staphylococcus aureus; assay: Bactericidal activity against Staphylococcus aureus ATCC 6538 incubated for 24 hrs followed by serial sub-cultivation and measured after 24 hrs by microdilution method; assay type: functional
[15] = test system: Penicillium ochrochloron; assay: Fungicidal activity against Penicillium ochrochloron ATCC 9112 incubated for 72 hrs followed by serial sub-cultivation for 72 hrs and measured after 72 hrs by serial dilution method; assay type: functional
[16] = test system: Aspergillus versicolor; assay: Fungicidal activity against Aspergillus versicolor ATCC 11730 incubated for 72 hrs followed by serial sub-cultivation for 72 hrs and measured after 72 hrs by serial dilution method; assay type: functional
[17] = test system: Escherichia coli; assay: Antibacterial activity against Escherichia coli ATCC 35210 after 24 hrs by microdilution method; assay type: functional; conditions: ATCC 35210, 24 h
[18] = test system: Aspergillus versicolor; assay: Antifungal activity against Aspergillus versicolor ATCC 11730 after 72 hrs by serial dilution method; assay type: functional; conditions: ATCC 11730, 72 h
[19] = test system: Micrococcus flavus; assay: Bactericidal activity against Micrococcus flavus ATCC 10240 incubated for 24 hrs followed by serial sub-cultivation and measured after 24 hrs by microdilution method; assay type: functional
[20] = test system: Pseudomonas aeruginosa; assay: Antibacterial activity against Pseudomonas aeruginosa ATCC 27853 after 24 hrs by microdilution method; assay type: functional; conditions: ATCC 27853, 24 h
[21] = test system: Staphylococcus aureus; assay: Antibacterial activity against Staphylococcus aureus ATCC 6538 after 24 hrs by microdilution method; assay type: functional; conditions: ATCC 6538, 24 h
[22] = test system: Aspergillus ochraceus; assay: Antifungal activity against Aspergillus ochraceus ATCC 12066 after 72 hrs by serial dilution method; assay type: functional; conditions: ATCC 12066, 72 h
[23] = test system: Salmonella typhimurium; assay: Bactericidal activity against Salmonella typhimurium ATCC 13311 incubated for 24 hrs followed by serial sub-cultivation and measured after 24 hrs by microdilution method; assay type: functional, Salmonella enterica subsp. enterica serovar Typhimurium
[24] = test system: Salmonella typhimurium; assay: Antibacterial activity against Salmonella typhimurium ATCC 13311 after 24 hrs by microdilution method; assay type: functional, Salmonella enterica subsp. enterica serovar Typhimurium; conditions: Salmonella enterica, ATCC 13311, 24 h
[25] = test system: Aspergillus fumigatus; assay: Fungicidal activity against Aspergillus fumigatus incubated for 72 hrs followed by serial sub-cultivation for 72 hrs and measured after 72 hrs by serial dilution method; assay type: functional
[26] = test system: Talaromyces funiculosus; assay: Fungicidal activity against Penicillium funiculosum ATCC 36839 incubated for 72 hrs followed by serial sub-cultivation for 72 hrs and measured after 72 hrs by serial dilution method; assay type: functional
[27] = test system: Talaromyces funiculosus; assay: Antifungal activity against Penicillium funiculosum ATCC 36839 after 72 hrs by serial dilution method; assay type: functional; conditions: ATCC 36839, 72 h
[28] = test system: Escherichia coli; assay: Bactericidal activity against Escherichia coli ATCC 35210 incubated for 24 hrs followed by serial sub-cultivation and measured after 24 hrs by microdilution method; assay type: functional
[29] = test system: Candida albicans; assay: Fungicidal activity against Candida albicans incubated for 72 hrs followed by serial sub-cultivation for 72 hrs and measured after 72 hrs by serial dilution method; assay type: functional
[30] = test system: Bacillus cereus; assay: Bactericidal activity against Bacillus cereus incubated for 24 hrs followed by serial sub-cultivation and measured after 24 hrs by microdilution method; assay type: functional
[31] = test system: Aspergillus fumigatus; assay: Antifungal activity against Aspergillus fumigatus after 72 hrs by serial dilution method; assay type: functional
[32] = test system: Penicillium ochrochloron; assay: Antifungal activity against Penicillium ochrochloron ATCC 9112 after 72 hrs by serial dilution method; assay type: functional; conditions: ATCC 9112, 72 h

SMILES	MBC99.5 [1] [×10⁻² umol/ml]	MIC [2] [µM]	MBC99.5 [3] [×10⁻² umol/ml]	MBC99.5 [4] [×10⁻² umol/ml]	MIC [5] [µM]	MIC [6] [µM]	MIC [7] [µM]	MIC [8] [µM]	MIC [9] [µM]	MFC99.5 [10] [×10⁻² umol/ml]	MFC99.5 [11] [×10⁻² umol/ml]	MFC99.5 [12] [×10⁻² umol/ml]	MIC [13] [µM]	MBC99.5 [14] [×10⁻² umol/ml]	MFC99.5 [15] [×10⁻² umol/ml]	MFC99.5 [16] [×10⁻² umol/ml]	MIC [17] [µM]	MIC [18] [µM]	MBC99.5 [19] [×10⁻² umol/ml]	MIC [20] [µM]	also measured
O=C(Cc1nsc2ccccc12)N/N=C/c1c(F)cccc1Cl	48.2	241 (≈ 83.8 µg/mL)	96.4	48.2	482 (≈ 168 µg/mL)	362 (≈ 126 µg/mL)	116 (≈ 40.3 µg/mL)	464 (≈ 161 µg/mL)	362 (≈ 126 µg/mL)	23.2	23.2	23.2	116 (≈ 40.3 µg/mL)	48.2	23.2	23.2	362 (≈ 126 µg/mL)	116 (≈ 40.3 µg/mL)	48.2	362 (≈ 126 µg/mL)	MIC [21]: 241 µM (≈ 83.8 µg/mL); MIC [22]: 116 µM (≈ 40.3 µg/mL); MBC99.5 [23]: 48.2 ×10⁻² umol/ml; MIC [24]: 241 µM (≈ 83.8 µg/mL); MFC99.5 [25]: 92.8 ×10⁻² umol/ml; MFC99.5 [26]: 23.2 ×10⁻² umol/ml; MIC [27]: 116 µM (≈ 40.3 µg/mL); MBC99.5 [28]: 48.2 ×10⁻² umol/ml; MFC99.5 [29]: 58 ×10⁻² umol/ml; MBC99.5 [30]: 48.2 ×10⁻² umol/ml; MIC [31]: 464 µM (≈ 161 µg/mL); MIC [32]: 116 µM (≈ 40.3 µg/mL)
O=C(Cc1nsc2ccccc12)NN1C(=O)CSC1c1ccc(Cl)cc1 (stereo not given)	74.4	100 (≈ 40.4 µg/mL)	111.6	74.4	744 (≈ 301 µg/mL)	273 (≈ 110 µg/mL)	198 (≈ 80 µg/mL)	198 (≈ 80 µg/mL)	570 (≈ 230 µg/mL)	37.2	19.8	19.8	100 (≈ 40.4 µg/mL)	37.2	19.8	19.8	273 (≈ 110 µg/mL)	100 (≈ 40.4 µg/mL)	37.2	372 (≈ 150 µg/mL)	MIC [21]: 198 µM (≈ 80 µg/mL); MIC [22]: 100 µM (≈ 40.4 µg/mL); MBC99.5 [23]: 74.4 ×10⁻² umol/ml; MIC [24]: 372 µM (≈ 150 µg/mL); MFC99.5 [25]: 74.4 ×10⁻² umol/ml; MFC99.5 [26]: 19.8 ×10⁻² umol/ml; MIC [27]: 144 µM (≈ 58.2 µg/mL); MBC99.5 [28]: 37.2 ×10⁻² umol/ml; MFC99.5 [29]: 37.2 ×10⁻² umol/ml; MBC99.5 [30]: 19.8 ×10⁻² umol/ml; MIC [31]: 372 µM (≈ 150 µg/mL); MIC [32]: 100 µM (≈ 40.4 µg/mL)
O=C(N/N=C/c1c(Cl)cccc1Cl)c1nsc2ccccc12	23.2	116 (≈ 40.6 µg/mL)	46.4	46.4	232 (≈ 81.3 µg/mL)	116 (≈ 40.6 µg/mL)	464 (≈ 163 µg/mL)	232 (≈ 81.3 µg/mL)	116 (≈ 40.6 µg/mL)	58	46.4	46.4	116 (≈ 40.6 µg/mL)	17.6	46.4	58	116 (≈ 40.6 µg/mL)	464 (≈ 163 µg/mL)	23.2	232 (≈ 81.3 µg/mL)	MIC [21]: 58 µM (≈ 20.3 µg/mL); MIC [22]: 232 µM (≈ 81.3 µg/mL); MBC99.5 [23]: 23.2 ×10⁻² umol/ml; MIC [24]: 116 µM (≈ 40.6 µg/mL); MFC99.5 [25]: 46.4 ×10⁻² umol/ml; MFC99.5 [26]: 58 ×10⁻² umol/ml; MIC [27]: 464 µM (≈ 163 µg/mL); MBC99.5 [28]: 23.2 ×10⁻² umol/ml; MFC99.5 [29]: 46.4 ×10⁻² umol/ml; MBC99.5 [30]: 23.2 ×10⁻² umol/ml; MIC [31]: 232 µM (≈ 81.3 µg/mL); MIC [32]: 232 µM (≈ 81.3 µg/mL)
O=C(N/N=C/c1c(F)cccc1F)c1nsc2ccccc12	25.2	126 (≈ 40 µg/mL)	50.4	50.4	252 (≈ 80 µg/mL)	252 (≈ 80 µg/mL)	252 (≈ 80 µg/mL)	252 (≈ 80 µg/mL)	63 (≈ 20 µg/mL)	50.4	12.6	25.2	126 (≈ 40 µg/mL)	25.2	25.2	12.6	252 (≈ 80 µg/mL)	15.8 (≈ 5.01 µg/mL)	50.4	252 (≈ 80 µg/mL)	MIC [21]: 126 µM (≈ 40 µg/mL); MIC [22]: 15.8 µM (≈ 5.01 µg/mL); MBC99.5 [23]: 6.3 ×10⁻² umol/ml; MIC [24]: 31.5 µM (≈ 10 µg/mL); MFC99.5 [25]: 25.2 ×10⁻² umol/ml; MFC99.5 [26]: 12.6 ×10⁻² umol/ml; MIC [27]: 31.5 µM (≈ 10 µg/mL); MBC99.5 [28]: 50.4 ×10⁻² umol/ml; MFC99.5 [29]: 50.4 ×10⁻² umol/ml; MBC99.5 [30]: 25.2 ×10⁻² umol/ml; MIC [31]: 15.8 µM (≈ 5.01 µg/mL); MIC [32]: 126 µM (≈ 40 µg/mL)
O=C(NN1C(=O)CSC1c1ccccc1Cl)c1nsc2ccccc12 (stereo not given)	38.4	154 (≈ 60 µg/mL)	76.8	38.4	589 (≈ 230 µg/mL)	384 (≈ 150 µg/mL)	102 (≈ 39.8 µg/mL)	384 (≈ 150 µg/mL)	205 (≈ 79.9 µg/mL)	20.5	20.5	20.5	102 (≈ 39.8 µg/mL)	38.4	76.8	5.1	282 (≈ 110 µg/mL)	25.6 (≈ 9.98 µg/mL)	76.8	282 (≈ 110 µg/mL)	MIC [21]: 102 µM (≈ 39.8 µg/mL); MIC [22]: 102 µM (≈ 39.8 µg/mL); MBC99.5 [23]: 38.4 ×10⁻² umol/ml; MIC [24]: 205 µM (≈ 79.9 µg/mL); MFC99.5 [25]: 20.5 ×10⁻² umol/ml; MFC99.5 [26]: 38.4 ×10⁻² umol/ml; MIC [27]: 205 µM (≈ 79.9 µg/mL); MBC99.5 [28]: 38.4 ×10⁻² umol/ml; MFC99.5 [29]: 76.8 ×10⁻² umol/ml; MBC99.5 [30]: 38.4 ×10⁻² umol/ml; MIC [31]: 102 µM (≈ 40 µg/mL); MIC [32]: 384 µM (≈ 150 µg/mL)
